{
  "source": "patent US20170198011A1",
  "about": "“COMPOSITION FOR TREATING SEPSIS OR SEPTIC SHOCK COMPRISING THE PEPTIDE ORIGINATED FROM THE SMAD6” (Medpacto, Inc., priority 2011, published 2017)",
  "key": {"inflammatory cytokines": {"system": "inflammatory cytokines", "assay": "Blood cytokine levels by ELISA in mice with CLP-induced sepsis", "assay_type": "in vivo", "details": "blood 24 hrs after CLP", "source_text": "FIG. 6A to 6I show levels of cytokines in blood samples from mice subcutaneously injected twice with Smaducin-6 or scrambled peptides at 2 and 14 hrs after CLP induction, as analyzed by ELISA, the blood samples being taken 24 hrs after CLP induction, and\nIn animal models of CLP-induced sepsis, Smaducin-6 was examined for ability to downregulate inflammatory cytokines. Blood samples were taken from each experimental group, and various cytokines and chemokines related with inflammatory responses were quantitatively measured. To the mice with CLP-induced sepsis, the peptide of the present invention was injected 2 and 14 hrs after CLP, and blood samples were collected 24 hrs after CLP. Levels of cytokines and chemokines in the blood samples were determined by ELISA using various antibodies according to the manufacturer's protocol. The antibodies used in this ELISA included mouse IL-6 (88-7064), IFN-γ (88-7314), TNF-α (88-7346), IL-4 (88-7044), IL-10 (88-7104), TGF-β1 (88-7344), IL-12 p70 (88-7121) and IL-17A (88-7371) ELISA Ready-SET-GO from eBioscience, Mouse IL-1β ELISA Set (559603) from BD Sciences, Mouse CXCL2/MIP-2 Immunoassay (MM200) from R&D Systems, and Mouse IFN-β ELISA Kit from PBL Biomedical Laboratories."}, "CXCR2": {"system": "CXCR2", "assay": "CXCR2 surface expression on human neutrophils by FACS", "assay_type": "cell-based", "details": "100 nM for 2 hrs, then LPS 2 hrs", "description": "FIG. 7C is a graph showing expression levels of CXCR2 on the surface of human neutrophils treated for 2 hrs with 100 nM scrambled peptides or Smaducin-6 and then for 2 hrs with LPS, as analyzed by FACS, and\nTo investigate the mechanism in which Smaducin-6 promotes peritoneal neutrophil migration, human neutrophils were treated for 2 hrs with 100 nM scrambled peptides or Smaducin-6 in advance of LPS treatment for 2 hrs. The expression of CXCR2, a chemokine receptor related with neutrophil migration, on the cell surface was analyzed using flow cytometry (FACS). Human neutrophils were isolated from normal human peripheral blood using Histopaque-1077 (Sigma) over a density gradient under the permission of the […] of Ajou University, School of Medicine (Suwon, Korea)."}, "[1]": {"system": "bacteria in peritoneal fluid", "assay": "Bacterial count in peritoneal fluid of CLP mice", "assay_type": "in vivo", "details": "subcutaneous injection, versus scrambled peptides", "source_text": "FIG. 7A is a graph showing cell counts in the peritoneal fluid taken from sepsis mice treated with scrambled peptides or Smaducin-6,\nIn mice with CLP-induced sepsis, the bacterial clearance of Smaducin-6 was examined. Smaducin-6 or the scrambled peptides were subcutaneously injected into CLP mice from which peritoneal fluid was then extracted from the mice, and bacteria in the fluid was counted. […] An examination was made to see whether this bacterial clearance of Smaducin-6 was attributed to the intraperitoneal migration of neutrophils. To this end, 2 and 14 hrs after induction of septic shock by injecting 60 mg/kg of LPS, Smaducin-6 or the scrambled peptides were injected into septic shock mice, and 24 hrs after the induction of septic shock, neutrophils were isolated from the peritoneal cavity using Histopaque-1077 (Sigma). Mouse neutrophils were counted using Trypan Blue (Sigma)."}, "IL-6": {"system": "IL-6", "assay": "IL-6 immunoblot in spleen and liver of CLP mice", "assay_type": "in vivo", "details": "immunoblotting"}, "[2]": {"system": "BALB/c mice with CLP-induced sepsis", "assay": "Survival of mice with CLP-induced sepsis", "assay_type": "in vivo", "description": "(§1) For use in assay for therapeutic effects of Smaducin-6 on sepsis, BALB/c mice were subjected to CLP (cecal ligation puncture) to prepare suitable animal models of clinical sepsis. Two hours after CLP operation on the mice, Smaducin-6 was subcutaneously injected at a dose of 8 mg/kg, 12 mg/kg, or 16 mg/kg to the mice, and then three more times at regular intervals of 12 hrs. […] In this context, Smaducin-6 was initially injected at a dose of 16 mg/kg 2, 4, or 10 hrs after CLP operation, and then three more times at regular intervals of 12 hrs. Further, cells from various tissues of CLP mice were stained with hematoxylin-eosin to observe nucleus and cell morphology."}, "[3]": {"system": "lung, liver and spleen of CLP mice", "assay": "Hematoxylin-eosin staining of tissues of CLP mice", "assay_type": "in vivo, BALB/c mice", "details": "16 mg/kg, compared to control", "description": "as §1"}, "GRK2": {"system": "GRK2", "assay": "LPS-induced GRK2 expression in RAW264.7 macrophages (immunoblot)", "assay_type": "cell-based, mouse", "details": "RAW264.7 cells, 100 nM for 2 hrs, then LPS 2 hrs", "description": "To examine how Smaducin-6 interrupts with the LPS-induced downregulation of CXCR2, the levels of G-protein-coupled receptor kinase 2 (GRK2) in human neutrophils and RAW264.7 macrophages were measured. GRK2 is upregualted by LPS, which is known to suppress the expression of CXCR2."}, "[4]": {"system": "TUNEL-positive cells in the spleen", "assay": "TUNEL assay of spleen of mice with CLP-induced sepsis", "assay_type": "in vivo", "details": "injected 2 and 14 hrs after CLP, spleen at 24 hrs", "description": "An examination was made to see whether Smaducin-6 suppresses apoptosis in mice with CLP-induced sepsis. The scrambled peptides or the Smaducin-6 peptide was injected into mice suffering from CLP-induced sepsis from which the spleen was then excised. Smaducin-6 was assayed for anti-apototic activity using the TUNEL method. The expression level of caspase-3, involved in apoptosis, was also determined using an immunohistochemical assay."}, "NF-κB": {"system": "NF-κB", "assay": "NF-κB-mediated downstream signaling in LPS-stimulated RAW264.7 cells (luciferase, immunoblots)", "assay_type": "cell-based, mouse", "description": "FIG. 4B is a graph showing luciferase activity in RAW264.7 cells transfected with a 5×NF-κB-Luc plasmid after treatment with scrambled peptides (Pal-Scram; 100 nM) or Smaducin-6 and then with LPS,"}, "[5]": {"details": "injected 2 and 14 hrs after CLP"}},
  "note": "Where no end group is shown, it is not given here. The star is where a group is joined. Palmitoyl = CCCCCCCCCCCCCCCC(=O)*",
  "data": [
    {"substance": "Smaducin-6: palmitic acid conjugated to N-terminus of the 20-amino-acid peptide of Smad6 position 422 to 441, GGRALVVRKVPPGYSIKVFD (SEQ ID NO: 1) (Palmitoyl-GGRALVVRKVPPGYSIKVFD)", "values": [
      {"measurement": "level of IFN-γ in the blood", "setting": "inflammatory cytokines; [5]", "value": "significantly reduced"},
      {"measurement": "level of IL-1β in the blood", "setting": "inflammatory cytokines; [5]", "value": "significantly reduced"},
      {"measurement": "level of IL-6 in the blood", "setting": "inflammatory cytokines; [5]", "value": "significantly reduced"},
      {"measurement": "level of TNF-α in the blood", "setting": "inflammatory cytokines; [5]", "value": "significantly reduced"},
      {"measurement": "level of IL-4 in the blood", "setting": "inflammatory cytokines; versus scrambled peptide", "value": "no statistically significant changes"},
      {"measurement": "level of IL-10 in the blood", "setting": "inflammatory cytokines; versus scrambled peptide", "value": "no statistically significant changes"},
      {"measurement": "level of IL-12 in the blood", "setting": "inflammatory cytokines; versus scrambled peptide", "value": "no statistically significant changes"},
      {"measurement": "level of IL-17A in the blood", "setting": "inflammatory cytokines; versus scrambled peptide", "value": "no statistically significant changes"},
      {"measurement": "level of TGF-β1 in the blood", "setting": "inflammatory cytokines; versus scrambled peptide", "value": "no statistically significant changes"},
      {"measurement": "expression of CXCR2 on the cell surface", "setting": "CXCR2", "value": "kept the expression of CXCR2 at a normal level"},
      {"measurement": "number of bacteria in the peritoneal fluid", "setting": "[1]", "value": "significantly lower"},
      {"measurement": "IL-6 expression in the spleen and the liver", "setting": "IL-6", "value": "reduce"},
      {"measurement": "survival rate of CLP mice", "setting": "[2]; 12 mg/kg subcutaneous, first injection 2 hrs after CLP, three more times every 12 hrs (FIG. 5A)", "value": 70, "unit": "%"},
      {"measurement": "survival rate of CLP mice", "setting": "[2]; 16 mg/kg subcutaneous, first injection 2 hrs after CLP, three more times every 12 hrs (FIG. 5A)", "value": 90, "unit": "%"},
      {"measurement": "survival rate of CLP mice", "setting": "[2]; 16 mg/kg, initial injection 2 hrs after CLP (FIG. 5B)", "value": 90, "unit": "%"},
      {"measurement": "survival rate of CLP mice", "setting": "[2]; 16 mg/kg, initial injection 4 hrs after CLP (FIG. 5B)", "value": 60, "unit": "%"},
      {"measurement": "morphology of cells and tissues of the lung, the liver and the spleen", "setting": "[3]", "value": "morphologically restored"},
      {"measurement": "LPS-induced GRK2 expression", "setting": "GRK2", "value": "downregualed"},
      {"measurement": "level of TUNEL-positive cells in the spleen", "setting": "[4]", "value": "significantly reduced"},
      {"measurement": "NF-κB-mediated luciferase gene expression", "setting": "NF-κB; 5xNF-κB-Luc", "value": "suppress"},
      {"measurement": "IKKα/β phosphorylation", "setting": "NF-κB; immunoblot", "value": "suppress"},
      {"measurement": "IκBα degradation", "setting": "NF-κB; immunoblot", "value": "suppress"}
    ]}
  ]
}
